Measurements: patent EP0659072B1, “PHAR[…] […] STEROIDS” (Pharmacia AB, priority 1993, dated 1995)

Assays:
[1] = Quality of castor oil containing emulsions with different steroids (pH, volume distribution, span, storage stability); format: physicochemical; conditions: for D(4:3) / pH / Span: emulsion of the steroid; for pH: heat sterilized; for Span: Malvern Mastersizer; for Storage 5 and 40°C: storage stability of emulsion
Method: In order to determinate the quality of the castor oil containing emulsions with different steroids, the following compositions were prepared:
The steroids were weighed in a 50 ml glass beaker. The castor oil (CO) or a mixture of castor oil and soybeans oil (CO+SBO) in a proportion of 70 : 30 was added to the beaker which was heated and the steroids were dissolved. The phospholipids were added to the oil phase and the agitation continued for another five minutes. This mixture was added to a heated aqueous phase containing water and glycerol and agitated for five minutes. The mixture was thereafter homogenized to an emulsion in a high pressure lab scale homogeniser at the technically highest possible pressure. The resultant emulsions were dispersed and sealed 20 ml glass vials which were heat sterilized. The emulsions were analysed with respect to the appearance, the shaking stability, pH and volume distribution. The span was analysed with a Malvern Mastersizer. The appearance of the droplets larger than 1µm and the average area on a relevant picture and the presence of precipitate were investigated with a microscope. The storage stability at 5 and 40°C was also studied.

[2] = Solubility of steroid and stability of the oil-in-water emulsions of Example 2; format: physicochemical; conditions: in Formulation 1 compared with Formulation 3
Method: For the biological experimentation oil-in-water emulsions were prepared from the following components:
pH was adjusted to 8.5 by NaOH and water for injection was added to 1 ml in all formulations.
Formulations 1 and 2 are emulsions according to the present invention, whereas Formulation 3 is a state of the art emulsion according to the European patent EP 233 849. The medium chain triglycerides in Formulation 2 are derived from coconut oil and will contain a fraction of triglycerides with fatty add residues having 6 to 12 carbon atoms. According to the present invention, the eltanolone was first mixed with castor oil or a mixture of castor oil and soybean oil and/or MCT. This leads to a substantial dissolution of the eltanolone. An emulsion was then prepared from the resulting oil-eltanolone mixture together with the additional indicated components. The resulting emulsions were stable and had average particle sizes of about 0.2 to 0.3 µ and could be sterilized by autoclaving without destabilisation. It is notable that in Formulations 1 and 2 according to the present invention half the amount of lipids is sufficient for obtaining a substantial dissolution of eltanolone when compared to Formulation 3. The solubility of eltanolone is for example about 5 times higher in Formulation 1 than in Formulation 3.

[3] = vehicle CO+SBO (castor oil and soybean oil 70 : 30)

Row | SMILES | D(4:3) ([1]; vehicle CO (castor oil)) | pH ([1]; vehicle CO (castor oil)) | Span ([1]; vehicle CO (castor oil)) | D(4:3) ([1]; vehicle CO+SBO (70 : 30)) | Span ([1]; vehicle CO+SBO (70 : 30)) | pH [1, 3] | Storage 5 and 40°C ([1]; vehicle CO (castor oil)) | Storage 5 and 40°C ([1]; vehicle CO+SBO (70 : 30)) | solubility of eltanolone [2]
1 | CC(=O)[C@H]1CC[C@H]2[C@@H]3CC[C@H]4C[C@H](O)CC[C@]4(C)[C@H]3CC[C@]12C [Allo pregnanolone, 5α-pregnan-3β-ol-20-one] | 0.69 µm | 8.8 | 1.70 | 0.53 µm | 1.58 | 9.0 | >3 months | >3 months | 
2 | C[C@]12CC[C@@H](O)C[C@@H]1CC[C@@H]1[C@@H]2CC[C@]2(C)C(=O)CC[C@@H]12 [Androsterone, 5α-androstan-3α-ol-17-one] | 0.83 µm | 8.9 | 1.79 | 0.51 µm | 1.50 | 9.2 | >1 month months | >1 month months | 
3 | CC(=O)[C@H]1CC[C@H]2[C@@H]3CC[C@@H]4C[C@@H](O)CC[C@]4(C)[C@H]3CC[C@]12C [Epipreganolone, 5β-pregnan-3β-ol-20-one] | 0.75 µm | 8.8 | 1.81 | 0.75 µm | 1.71 | 9.0 | >4 months | >4 months | 
4 | C[C@]12CCC(=O)C=C1CC[C@@H]1[C@@H]2[C@@H](O)C[C@@]2(C)[C@H]1CC[C@]2(O)C(=O)CO [Hydrocortisone, 11β,17α,21-trihydroxypregna-4-ene-3,20-dione, reference compound] | 0.76 µm | 8.7 | 1.43 | 0.56 µm | 1.51 | 8.8 |  |  | 
5 | C[C@]12C=CC(=O)C=C1CC[C@@H]1[C@@H]2[C@@H](O)C[C@@]2(C)[C@H]1CC[C@]2(O)C(=O)CO [Prednisolone, 11β-11, 17, 21-trihydroxypregna-1,4-diene-3,20-dione, reference compound] | 0.81 µm | 8.9 | 1.28 | 0.70 µm | 1.26 | 8.9 | >2 months | >2 months | 
6 | CC(=O)[C@H]1CC[C@H]2[C@@H]3CC=C4C[C@@H](OS(=O)(=O)O)CC[C@]4(C)[C@H]3CC[C@]12C [Pregnenolone sulphate, 5-pregnen-3β-ol-20-one-sulphate] | 0.97 µm | 8.8 | 1.76 | 0.50 µm | 1.56 | 8.8 | >1 month months | >1 month months | 
7 | C[C@]12CC[C@@H](O)C[C@H]1CC[C@@H]1[C@@H]2CC[C@]2(C)[C@@H](C(=O)CO)CC[C@@H]12 [Tetrahydrodeoxycorticosterone, 5β-pregnan-3α,21-diol-20-one] | 0.86 µm | 9.0 | 1.80 | 0.58 µm | 1.52 | 9.1 | >1 month months | >1 month months | 
8 | CC(=O)[C@H]1CC[C@H]2[C@@H]3CC[C@@H]4C[C@H](O)CC[C@]4(C)[C@H]3CC[C@]12C [eltanolone, 5β-pregnan-3α-ol-20-one] |  |  |  |  |  |  |  |  | about 5 times higher
